Reference: article PMC7377239, “Cardiovascular Effects of Polychlorinated Biphenyls and Their Major Metabolites” (Environmental Health Perspectives, 2020)
Like-named read-outs stand apart in the source and are kept apart here.

Assays:
[1] = system: iCell endothelial cells (human iPSC-derived ECs); test: High-content imaging cytotoxicity in iCell endothelial cells, 24 h; assay type: cell-based; conditions: Homo sapiens, Endothelial cell, 24 hr; for viability at 0.1 µM / activity at 0.1 µM: 0.10 µM
Method in brief: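 Readouts were vehicle-normalised and fitted to a four-parameter logistic model. POD was set at one SD beyond 0.5% DMSO control means, and 100 µM was assigned when no response was seen. Cells were monolayers of iCell endothelial cells imaged after 24 h compound exposure using nuclear, mitochondrial and calcein dyes.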

HUVECs = test: Tube formation (tubulogenesis) assay in HUVECs, 18 h; assay type: cell-based, human; conditions: Homo sapiens, HUVEC, 18 h; for activity at 0.1 µM: 0.10 µM
Method in brief: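 HUVECs (passage 1–5) seeded on reduced-growth-factor basement membrane and exposed to compounds overnight at 37°C, 5% CO2, in 2× maintenance medium with 12.5 ng/mL VEGF; 0.5% DMSO vehicle. Calcein AM-stained tube networks imaged and analysed; vehicle-normalized readouts fit to four-parameter logistic, POD set at one SD of vehicle means.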

[2] = iPSC-EC, 0.00 µM control = 100.00, read-out: endo.cyto.24hr
[3] = iPSC-EC, 0.00 µM control = 100.00, read-out: endo.mito.24hr
[4] = iPSC-EC, 0.00 µM control = 100.00, read-out: endo.mitoint.24hr
[5] = iPSC-EC, 0.00 µM control = 100.00, read-out: endo.nma.24hr
[6] = iPSC-EC, 0.00 µM control = 100.00, read-out: endo.tc.24hrs
[7] = HUVECs, 0.00 µM = 100.00, read-out: huvec.mtl.18hr
[8] = HUVECs, 0.00 µM = 100.00, read-out: huvec.tlps.18hr
[9] = HUVECs, 0.00 µM = 100.00, read-out: huvec.tta.18hr
[10] = HUVECs, 0.00 µM = 100.00, read-out: huvec.ttl.18hr

Clc1cccc(-c2cccc(Cl)c2)c1 [PCB11]
viability at 0.01 µM [1, 2]: 99.3%
activity at 0.01 µM [1, 3]: 99.6%
activity at 0.01 µM [1, 4]: 100%
activity at 0.01 µM [1, 5]: 101%
viability at 0.01 µM [1, 6]: 99.3%
viability at 0.1 µM [1, 2]: 95.3%
activity at 0.1 µM [1, 3]: 96%
activity at 0.1 µM [1, 4]: 97.8%
activity at 0.1 µM [1, 5]: 102%
viability at 0.1 µM [1, 6]: 95.3%
viability at 1 µM [1, 2]: 96.6%
activity at 1 µM [1, 3]: 97%
activity at 1 µM [1, 4]: 96.1%
activity at 1 µM [1, 5]: 99.7%
viability at 1 µM [1, 6]: 96.6%
viability at 10 µM [1, 2]: 99%
activity at 10 µM [1, 3]: 99.4%
activity at 10 µM [1, 4]: 107%
activity at 10 µM [1, 5]: 100%
viability at 10 µM [1, 6]: 99%
viability at 100 µM [1, 2]: 104%
activity at 100 µM [1, 3]: 105%
activity at 100 µM [1, 4]: 92.6%
activity at 100 µM [1, 5]: 100%
viability at 100 µM [1, 6]: 104%
minimal effective concentration ([1]; iPSC-EC, top concentration 100.00 µM, read-out: endo.cyto.24hr POD): 100 µM
minimal effective concentration ([1]; iPSC-EC, top concentration 100.00 µM, read-out: endo.mito.24hr POD): 100 µM
minimal effective concentration ([1]; iPSC-EC, top concentration 100.00 µM, read-out: endo.mitoint.24hr POD): 100 µM
minimal effective concentration ([1]; iPSC-EC, top concentration 100.00 µM, read-out: endo.nma.24hr POD): 100 µM
minimal effective concentration ([1]; iPSC-EC, top concentration 100.00 µM, read-out: endo.tc.24hrs POD): 100 µM
activity at 0.01 µM (HUVECs; [7]): 107%
activity at 0.01 µM (HUVECs; [8]): 122%
activity at 0.01 µM (HUVECs; [9]): 138%
activity at 0.01 µM (HUVECs; [10]): 122%
activity at 0.1 µM (HUVECs; [7]): 113%
activity at 0.1 µM (HUVECs; [8]): 126%
activity at 0.1 µM (HUVECs; [9]): 133%
activity at 0.1 µM (HUVECs; [10]): 124%
activity at 1 µM (HUVECs; [7]): 109%
activity at 1 µM (HUVECs; [8]): 130%
activity at 1 µM (HUVECs; [9]): 157%
activity at 1 µM (HUVECs; [10]): 140%
activity at 10 µM (HUVECs; [7]): 97.8%
activity at 10 µM (HUVECs; [8]): 94.6%
activity at 10 µM (HUVECs; [9]): 86.1%
activity at 10 µM (HUVECs; [10]): 87.2%
activity at 100 µM (HUVECs; [7]): 81.4%
activity at 100 µM (HUVECs; [8]): 77.5%
activity at 100 µM (HUVECs; [9]): 85%
activity at 100 µM (HUVECs; [10]): 78.8%
minimal effective concentration (HUVECs; HUVECs, top concentration 100.00 µM, read-out: huvec.mtl.18hr POD): 100 µM
minimal effective concentration (HUVECs; HUVECs, top concentration 100.00 µM, read-out: huvec.tlps.18hr POD): 41.8 µM
minimal effective concentration (HUVECs; HUVECs, top concentration 100.00 µM, read-out: huvec.tta.18hr POD): 100 µM
minimal effective concentration (HUVECs; HUVECs, top concentration 100.00 µM, read-out: huvec.ttl.18hr POD): 100 µM

Clc1cc(Cl)c(-c2cc(Cl)c(Cl)cc2Cl)cc1Cl [PCB 153, 2,2′,4,4′,5,5′-hexachlorobiphenyl]
minimal effective concentration ([1]; endothelial cells (endo), cyto, read-out: POD endo.cyto.24hr): 18.6 µM
minimal effective concentration ([1]; endothelial cells (endo), mito, read-out: POD endo.mito.24hr): 18.6 µM
minimal effective concentration ([1]; endothelial cells (endo), mitoint, read-out: POD endo.mitoint.24hr): 0.07 µM
minimal effective concentration ([1]; endothelial cells (endo), nma, read-out: POD endo.nma.24hr): 62.5 µM
minimal effective concentration ([1]; endothelial cells (endo), tc, read-out: POD endo.tc.24hr): 49.2 µM
minimal effective concentration (HUVECs; tube formation mtl, read-out: POD huvec.mtl.18hr): 19.8 µM
minimal effective concentration (HUVECs; tube formation tlps, read-out: POD huvec.tlps.18hr): 61.8 µM
minimal effective concentration (HUVECs; tube formation tta, read-out: POD huvec.tta.18hr): 8.87 µM
minimal effective concentration (HUVECs; tube formation ttl, read-out: POD huvec.ttl.18hr): 0.13 µM
